The text below walks through data of patent publication US11377425B1, “Small molecule modulators of IL-17” (LEO Pharma A/S, priority 2018, dated 2022).

The structures appear in SMILES notation. A value given as a limit tells only on which side of the number the result lay.

One may read the EC50 as the concentration needed to bring the measured effect to its halfway point.

The test concerns the target T1, human IL-17AA (Homo sapiens, UniProt Q16552).
T1 construct: host or cells: HEK (human embryonic kidney) cells
T1 sequence (Q16552 24-155): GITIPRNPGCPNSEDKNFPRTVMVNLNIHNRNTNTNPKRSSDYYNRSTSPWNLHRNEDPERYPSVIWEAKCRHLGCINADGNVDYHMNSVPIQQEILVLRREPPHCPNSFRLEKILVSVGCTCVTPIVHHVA
The test is described as follows: IL-8 release assay in human epithelial keratinocytes adult (HEKa). Type of test: cell-based. The conditions noted are these: HEKa cells, 3 ng/mL HEK-human IL-17AA + 10 ng/mL human TNFalpha; read-out: Rel EC50 IL-8 release assay. How it is done:
Example 138: IL-8 Release Assay in Human Epithelial Keratinocytes Adult (HEKa)
Keratinocytes were seeded at 3500 cells/well in 384-well ViewPlates (Perkin Elmer) in Epilife medium (Thermo Fisher) containing human keratinocyte growth supplement (HKGS) without hydrocortisone and incubated in a humid incubator at 37° C. 5% CO2, overnight. The following day growth medium was removed and 25 μl fresh Epilife medium added. 75 nL test compound in 100% DMSO was added into each well reserved for test compounds, by the use of acoustic pipetting. The remaining wells received an equal volume of DMSO only, as vehicle control, or terfenadine in DMSO, as a positive control for any cytotoxic compounds. Subsequently, another 25 μL Epilife medium was added to each well. Finally, wells containing test compounds and wells prepared to yield maximum stimulation received […] of 9 ng/mL recombinant, human embryonic kidney cell (HEK)-derived human IL-17AA+30 ng/mL human TNF-alpha, in Epilife medium. Wells prepared to define 100% inhibition of IL-17 effects received 25 μL of 30 ng/mL human TNF-alpha alone, in Epilife medium. Final concentrations were 3 ng/mL HEK-human IL-17AA+10 ng/mL human TNFalpha (maximum stimulation) and 10 ng/mL human TNFalpha alone (100% inhibition, Emax), respectively. Cells were incubated for 68-72 hours in the incubator. IL-8 released from the cells was measured by the use of a commercial homogenous time-resolved fluorescence (HTRF) assay (CisBio). 2 μL cell culture supernatant was transferred to a 384-well Proxiplate. 5 μL HTRF reagent was added and the plates incubated sealed in the dark for 3-22 hours at room temperature. Time-resolved fluorescence was read at 665 vs 620 nm, with excitation at 320 nm, and IL-8 levels calculated as percent of controls. Reduction of the amount of secreted IL-8 indicates decreased IL-17 signaling. Concentration response curves were fitted by the use of a four-parameter logistic equation. Relative IC50 and Emax were reported from curves showing acceptable fit (r^2>0.9). Cytotoxicity was measured in the cell-containing Viewplates following addition of 7 μL PrestoBlue (Thermo Fisher) and incubation for 2.5-3 hours at room temperature, by measuring fluorescence at 615 nm (excitation at 535 nm). Fluorescence was directly proportional to the amount of metabolic activity. Reduction of fluorescence signal indicated cytotoxicity.
Compounds of the present invention were tested in the IL-8 release assay in human epithelial keratinocytes.
Compounds having a Relative EC50 of X; wherein X<100 nM; are indicated with *
Compounds having a Relative EC50 of X; wherein 100 nM<X<1000 nM; are indicated with **
Compounds having a Relative EC50 of X; wherein 1000 nM<X; are indicated with ***

For `Cc1n[nH]c(C)c1-c1ccc(NC(=O)C(NC(=O)c2ccnn2C)[C@@H]2CCOc3ccccc32)cc1` (mixture of isomers) [Example 26, 1:3 mixture of N-[(1S)-1-[(4R)-chroman-4-yl]-2-[4-(3,5-dimethyl-1H-pyrazo 4-yl)anilino]-2-oxo-ethyl]-2-methyl-pyrazole-3-carboxamide and N-[(1R)-1-[(4R)-chroman-4-yl]-2-[4-(3,5-dimethyl-1H-pyrazol-4-yl)anilino]-2-oxo-ethyl]-2-methyl-pyrazole-3-carboxamide], the EC50 is above 1000 nM.
For `Cc1n[nH]c(C)c1-c1ccc(NC(=O)C(NC(=O)c2ccnn2C(C)C(C)O)C(C2CC2)C2CC2)cc1` (mixture of isomers) [Example 161, N-[(1S)-1-(dicyclopropylmethyl)-2-[4-(3,5-dimethyl-1H-pyrazol-4-yl)anilino]-2-oxo-ethyl]-2-[(1S,25) and (1R,2R)-2-hydroxy-1-methyl-propyl]pyrazole-3-carboxamide], the EC50 was above 1000 nM.
For `Cc1n[nH]c(C)c1-c1ccc(NC(=O)[C@@H](NC(=O)c2ccnn2C)C(C)CC(C)(C)C)cc1` (mixture of isomers) [Example 196], the EC50 is below 100 nM.
Regarding `Cc1n[nH]c(C)c1-c1ccc(NC(=O)[C@@H](NC(=O)c2ccnn2C)C(C)C2CCCC2)cc1` (mixture of isomers) [Example 221], the EC50 lay in the range of 100 to 1000 nM.
In the case of `Cc1n[nH]c(C)c1-c1ccc(NC(=O)C(NC(=O)c2ccnn2C)C(C(F)(F)F)C(F)(F)F)cc1` (racemic) [Example 14], the concentration for a half-maximal effect (EC50) was above 1000 nM.
As for `Cc1n[nH]c(C)c1-c1ccc(NC(=O)C(NC(=O)c2ccnn2C(C)C)C2CCC3(CC2)CC3)cc1` (racemic) [Example 20, N-[2-[4-(3,5-dimethyl-1H-pyrazol-4-yl)anilino]-2-oxo-1-spiro[2.5]octan-6-yl-ethyl]-2-isopropyl-pyrazole-3-carboxamide], the EC50 lay within 100 to 1000 nM.
As for `Cc1n[nH]c(C)c1-c1ccc(NC(=O)C(NC(=O)c2ccnn2C)C2CCC3(CC2)CC3)cc1` (racemic) [Example 21, N-[2-[4-(3,5-dimethyl-1H-pyrazol-4-yl)anilino]-2-oxo-1-spiro[2.5]octan-6-yl-ethyl]-2-methyl-pyrazole-3-carboxamide], the concentration for a half-maximal effect (EC50) lay in the range of 100 to 1000 nM.
Consider `Cc1n[nH]c(C)c1-c1ccc(NC(=O)C(NC(=O)c2ccnn2C(C)C)C(C2CC2)C2CC2)cc1` (racemic) [Example 31, N-[1-(dicyclopropylmethyl)-2-[4-(3,5-dimethyl-1H-pyrazol-4-yl)anilino]-2-oxo-ethyl]-2-isopropyl-pyrazole-3-carboxamide], for which the EC50 is below 100 nM.
Regarding `CCn1nccc1C(=O)NC(C(=O)Nc1ccc(-c2c(C)n[nH]c2C)cc1)C(C1CCC1)C1CCC1` (racemic) [Example 35, N-[1-[di(cyclobutyl)methyl]-2-[4-(3,5-dimethyl-1H-pyrazol-4-yl)anilino]-2-oxo-ethyl]-2-ethyl-pyrazole-3-carboxamide], the concentration for a half-maximal effect (EC50) was below 100 nM.
Take `Cc1n[nH]c(C)c1-c1ccc(NC(=O)C(NC(=O)c2ccnn2C(C)C)C(C2CCC2)C2CCC2)cc1` (racemic) [Example 38, N-[1-[di(cyclobutyl)methyl]-2-[4-(3,5-dimethyl-1H-pyrazol-4-yl)anilino]-2-oxo-ethyl]-2-isopropyl-pyrazole-3-carboxamide]: the EC50 is below 100 nM.
For `Cc1n[nH]c(C)c1-c1ccc(NC(=O)C(NC(=O)c2ccnn2C)C2CCCC2C)cc1` (racemic) [Example 252, N-[2-[4-(3,5-dimethyl-1H-pyrazol-4-yl)anilino]-1-(2-methylcyclopentyl)-2-oxo-ethyl]-2-methyl-pyrazole-3-carboxamide] the value was 100 to 1000 nM.
In the case of `Cc1n[nH]c(C)c1-c1ccc(NC(=O)C(NC(=O)c2ccnn2C(C)C)C(C2CC(F)(F)C2)C2CC(F)(F)C2)cc1` (racemic) [Example 294, N-[1-[bis(3,3-difluorocyclobutyl)methyl]-2-[4-(3,5-dimethyl-1H-pyrazol-4-yl)anilino]-2-oxo-ethyl]-2-isopropyl-pyrazole-3-carboxamide], the concentration for a half-maximal effect (EC50) was in the range of 100 to 1000 nM.
Regarding `Cc1n[nH]c(C)c1-c1ccc(NC(=O)C(NC(=O)c2ccnn2C(C)C)C(C2CC2)C2CC2)cc1` (single isomer, unassigned) [Example 33, N-[1-(dicyclopropylmethyl)-2-[4-(3,5-dimethyl-1H-pyrazol-4-yl)anilino]-2 oxo-ethyl]-2-isopropyl-pyrazole-3-carboxamide], the EC50 is above 1000 nM.
As to `CCn1nccc1C(=O)NC(C(=O)Nc1ccc(-c2c(C)n[nH]c2C)cc1)C(C1CCC1)C1CCC1` (single isomer, unassigned) [Example 37, N-[1-[di(cyclobutyl)methyl]-2-[4-(3,5-dimethyl-1H-pyrazol-4-yl)anilino]-2-oxo-ethyl]-2-ethyl-pyrazole-3-carboxamide], the 50% effective concentration (EC50) fell in the range of 100 to 1000 nM.
As to `Cc1n[nH]c(C)c1-c1ccc(NC(=O)C(NC(=O)c2ccnn2C(C)C)C(C2CCC2)C2CCC2)cc1` (single isomer, unassigned) [Example 40, N-[1-[di(cyclobutyl)methyl]-2-[4-(3,5-dimethyl-1H-pyrazol-4-yl)anilino]-2-oxo-ethyl]-2-isopropyl-pyrazole-3-carboxamide], the EC50 is 100 to 1000 nM.
For `Cc1ncn(C)c1-c1ccc(NC(=O)C(NC(=O)OC(C)(C)C)C2CCC(F)(F)CC2)cc1` (single isomer, unassigned) [Example 85, tert-butyl N-[1-(4,4-difluorocyclohexyl)-2-[4-(3,5-dimethylimidazol-4-yl)anilino]-2-oxo-ethyl]carbamate] the value was above 1000 nM; for `Cc1ncn(C)c1-c1ccc(NC(=O)C(NC(=O)OC(C)(C)C)C2CCC(F)(F)CC2)cc1` (single isomer, unassigned) [Example 86, tert-butyl N-[1-(4,4-difluorocyclohexyl)-2-[4-(3,5-dimethylimidazol-4-yl)anilino]-2-oxo-ethyl]carbamate], above 1000 nM.
Turning to `Cc1n[nH]c(C)c1-c1ccc(NC(=O)[C@@H](NC(=O)c2ccnn2C(C)CO)C2CCCCC2)cc1` (single isomer, unassigned) [Example 104], the concentration giving a half-maximal response (EC50) fell in the range of 100 to 1000 nM.
With `Cc1n[nH]c(C)c1-c1ccc(NC(=O)[C@@H](NC(=O)c2ccnn2C(C)CO)C2CCCCC2)cc1` (single isomer, unassigned) [Example 105], the EC50 lay within 100 to 1000 nM.
On to `Cc1n[nH]c(C)c1-c1ccc(NC(=O)[C@@H](NC(=O)c2ccnn2[C@@H](C)CO)C(C2CC2)C2CC2)cc1` (single isomer, unassigned) [Example 119], for which the concentration giving a half-maximal response (EC50) is below 100 nM.
Regarding `Cc1n[nH]c(C)c1-c1ccc(NC(=O)[C@@H](NC(=O)c2ccnn2C(C)CO)C(C2CCC2)C2CCC2)cc1` (single isomer, unassigned) [Example 123], the EC50 is below 100 nM.
Consider `Cc1n[nH]c(C)c1-c1ccc(NC(=O)[C@@H](NC(=O)c2ccnn2C(C)CO)C(C2CCC2)C2CCC2)cc1` (single isomer, unassigned) [Example 124], for which the EC50 was below 100 nM.
For `Cc1n[nH]c(C)c1-c1ccc(NC(=O)C(NC(=O)c2ccnn2CCC(C)O)C2CCCCCCC2)cc1` (single isomer, unassigned) [Example 142, N-[1-cyclooctyl-2-[4-(3,5 dimethyl-1H-pyrazol-4-yl)anilino]-2-oxo-ethyl]-2-(3-hydroxybutyl)pyrazole-3-carboxamide], the EC50 was 100 to 1000 nM.
`Cc1n[nH]c(C)c1-c1ccc(NC(=O)C(NC(=O)c2ccnn2CCC(C)O)C2CCCCCCC2)cc1` (single isomer, unassigned) [Example 143, N-[1-cyclooctyl-2-[4-(3,5-dimethyl-1H-pyrazol-4-yl)anilino]-2-oxo-ethyl]-2-(3-hydroxybutyl)pyrazole-3-carboxamide]: the 50% effective concentration (EC50) lay in the range of 100 to 1000 nM.
With `Cc1n[nH]c(C)c1-c1ccc(NC(=O)C(NC(=O)c2ccnn2CCC(C)O)C2CCCCCCC2)cc1` (single isomer, unassigned) [Example 144, N-[1-cyclooctyl-2-[4-(3,5-dimethyl-1H-pyrazol-4-yl)anilino]-2-oxo-ethyl]-2-(3-hydroxybutyl)pyrazole-3-carboxamide], the concentration giving a half-maximal response (EC50) is below 100 nM.
